Test results from BigSolDB 2.1.

CNC(=O)NC
solubility (mole fraction)
Details	288.15 K	293.15 K	298.15 K	303.15 K	308.15 K	313.15 K	318.15 K	323.15 K	328.15 K
in acetone	0.129	0.152	0.177	0.202	0.228	0.261	0.301	0.339	0.376
in acetonitrile	0.102	0.128	0.151	0.186	0.216	0.25	0.282	0.322	0.363
in ethyl acetate	0.0302	0.0421	0.0608	0.0825	0.111	0.14	0.175	0.22	0.271
in isopropanol	0.331	0.352	0.372	0.39	0.416	0.438	0.471	0.5	0.533
in n-butyl acetate	0.0137	0.0205	0.0296	0.0408	0.0602	0.0834	0.111	0.148	0.195
in sec-butanol	0.325	0.353	0.381	0.412	0.438	0.46	0.494	0.523	0.561
in water	0.362	0.38	0.405	0.436	0.464	0.494	0.533	0.57	0.601
